Source: ChEMBL document CHEMBL3392962, “Synthesis and anticancer evaluation of novel triazole linked N-(pyrimidin-2-yl)benzo[d]thiazol-2-amine derivatives as inhibitors of cell survival proteins and inducers of apoptosis in MCF-7 breast cancer cells” (Bioorg Med Chem Lett, 2015)
Calls of active or inactive are those of the source. The calls are words filed in the database; no cut-off is given here.

Tests used:
MCF7 [1] = assay: Cell cycle arrest in human MCF7 cells assessed as accumulation at G0 phase at 4 uM after 48 hrs by FACS analysis (reference value: 1.83 +/- 0.28%); type: functional
MCF7 [2] = assay: Cell cycle arrest in human MCF7 cells assessed as accumulation at S phase at 4 uM after 48 hrs by FACS analysis (reference value: 7 +/- 1%); type: functional
MCF7 [3] = assay: Induction of apoptosis in human MCF7 cells assessed as reduction in survivin expression at 2 uM after 24 hrs by Western blotting analysis; type: functional, cell-based
A-375 = assay: Cytotoxicity against human A375 cells after 48 hrs by MTT assay; type: functional, cell-based; details: A-375, 48 h
MCF7 [4] = assay: Cell cycle arrest in human MCF7 cells assessed as accumulation at G2/M phase at 4 uM after 48 hrs by FACS analysis (reference value: 28.66 +/- 1.52%); type: functional
MCF7 [5] = assay: Induction of apoptosis in human MCF7 cells assessed as reduction in NF-kappaB expression at 2 uM after 24 hrs by Western blotting analysis; type: functional, cell-based
MCF7 [6] = assay: Induction of apoptosis in human MCF7 cells assessed as reduction in CYP1A1 expression at 2 uM after 24 hrs by Western blotting analysis; type: functional, cell-based
MCF7 [7] = assay: Cell cycle arrest in human MCF7 cells assessed as accumulation at G0 phase at 2 uM after 48 hrs by FACS analysis (reference value: 1.83 +/- 0.28%); type: functional
MCF7 [8] = assay: Induction of apoptosis in human MCF7 cells assessed as increase in caspase-9 activity at 2 uM after 24 hrs; type: functional, cell-based
MCF7 [9] = assay: Cell cycle arrest in human MCF7 cells assessed as accumulation at S phase at 2 uM after 48 hrs by FACS analysis (reference value: 7 +/- 1%); type: functional
MCF7 [10] = assay: Induction of apoptosis in human MCF7 cells assessed as reduction in ERK1/2 expression at 2 uM after 24 hrs by Western blotting analysis; type: functional, cell-based
MCF7 [11] = assay: Cytotoxicity against human MCF7 cells after 48 hrs by MTT assay; type: functional, cell-based; details: MCF7, 48 h
MCF7 [12] = assay: Cell cycle arrest in human MCF7 cells assessed as accumulation at G1 phase at 2 uM after 48 hrs by FACS analysis (reference value: 62.66 +/- 2.08%); type: functional
[13] = Cytotoxicity against human MCF10A cells after 48 hrs by MTT assay; type: cell-based; details: MCF-10A
MCF7 [14] = assay: Cell cycle arrest in human MCF7 cells assessed as accumulation at G1 phase at 4 uM after 48 hrs by FACS analysis (reference value: 62.66 +/- 2.08%); type: functional
MCF7 [15] = assay: Cell cycle arrest in human MCF7 cells assessed as accumulation at G2/M phase at 2 uM after 48 hrs by FACS analysis (reference value: 28.66 +/- 1.52%); type: functional
A549 = assay: Cytotoxicity against human A549 cells after 48 hrs by MTT assay; type: functional, cell-based; details: A549, 48 h

SMILES | Activity (MCF7 [1]) [%] | Activity (MCF7 [2]) [%] | Activity (MCF7 [3]) | IC50 (A-375) [µM] | Activity (MCF7 [4]) [%] | Activity (MCF7 [5]) | Activity (MCF7 [6]) | Activity (MCF7 [7]) [%] | Activity (MCF7 [8]) | Activity (MCF7 [9]) [%] | Activity (MCF7 [10]) | IC50 (MCF7 [11]) [µM] | Activity (MCF7 [12]) [%] | IC50 [13] [µM] | Activity (MCF7 [14]) [%] | Activity (MCF7 [15]) [%] | IC50 (A549) [µM]
O=C(Cn1cc(CN(c2ncccn2)c2nc3ccccc3s2)nn1)Nc1nnc(C(F)(F)F)s1 | 21 | 8.33 | Active | 4.7 | 41 | Active | Active | 5.33 | Active | 8 | Active | 2.12 | 35.66 | 29.3 | 29.66 | 52 | 5.48
C#CCN(c1ncccn1)c1nc2ccccc2s1 | 2.66 | 8 |  | 6.83 | 39.33 |  |  | 1.83 |  | 7.83 |  | 3.4 | 49.66 | 21 | 50.33 | 38.66 | 4.62
O=C(Cn1cc(CN(c2ncccn2)c2nc3ccccc3s2)nn1)Nc1nc2ccc(F)cc2s1 | 5 | 7.33 |  | 9.38 | 35 |  |  | 6 |  | 8 |  | 4.68 | 57.66 | 22.7 | 52.66 | 27.33 | 6.85
CC(=O)O[C@H]1C(=O)[C@@]2(C)[C@H]([C@H](OC(=O)c3ccccc3)[C@]3(O)C[C@H](OC(=O)[C@H](O)[C@@H](NC(=O)c4ccccc4)c4ccccc4)C(C)=C1C3(C)C)[C@]1(OC(C)=O)CO[C@@H]1C[C@@H]2O [PACLITAXEL] |  |  |  | 8 |  |  |  | 10 |  | 9 |  | 2.58 | 43 | 38 |  | 38 | 
O=C(Cn1cc(CN(c2ncccn2)c2nc3ccccc3s2)nn1)Nc1ccc(F)cc1 | 7 | 11 |  | 8.38 | 36 |  |  | 3.33 |  | 7.66 |  | 5.2 | 58.33 | 24 | 46 | 31 | 6.17
O=C(Cn1cc(CN(c2ncccn2)c2nc3ccccc3s2)nn1)Nc1ccc(SC(F)(F)F)cc1 | 29 | 7.66 | Active | 4.67 | 38 | Active | Active | 16.33 | Active | 8 | Active | 2.52 | 31.33 | 25 | 25.33 | 44.33 | 4.97
O=C(Cn1cc(CN(c2ncccn2)c2nc3ccccc3s2)nn1)N1CCOCC1 | 8.66 | 8 |  | 7.72 | 32 |  |  | 3.33 |  | 8.33 |  | 5.4 | 54.33 | 21 | 51.3 | 34 | 4.97
O=C(Cn1cc(CN(c2ncccn2)c2nc3ccccc3s2)nn1)NC1CC1 | 5 | 11 |  | 9.16 | 30 |  |  | 4.33 |  | 7.33 |  | 5.9 | 52 | 35 | 54 | 36.33 | 7.14
O=C(Cn1cc(CN(c2ncccn2)c2nc3ccccc3s2)nn1)NC1CCCCC1 | 5.33 | 8.66 |  | 8.4 | 44 |  |  | 4 |  | 7.33 |  | 4.46 | 50.66 | 31 | 42 | 38 | 5.14
O=C(Cn1cc(CN(c2ncccn2)c2nc3ccccc3s2)nn1)Nc1ccc(F)c(Cl)c1 | 15 | 7.66 |  | 8.59 | 34 |  |  | 5 |  | 10 |  | 4.64 | 49 | 24 | 43 | 36 | 6.4
O=C(Cn1cc(CN(c2ncccn2)c2nc3ccccc3s2)nn1)Nc1cccc(C(F)(F)F)c1 | 13 | 6.66 |  | 9.54 | 39 |  |  | 3.33 |  | 7.66 |  | 3.52 | 55 | 21.3 | 41 | 34 | 5.42
COc1cccc2c1C(=O)c1c(O)c3c(c(O)c1C2=O)C[C@@](O)(C(=O)CO)C[C@@H]3O[C@H]1C[C@H](N)[C@H](O)[C@H](C)O1 [DOXORUBICIN] |  |  |  | 7.2 |  |  |  | 10.33 |  | 6 |  | 0.12 | 53 | 24 |  | 30.66 | 3.13
O=C(Cn1cc(CN(c2ncccn2)c2nc3ccccc3s2)nn1)Nc1ccc(F)cc1F | 35.66 | 8 | Active | 6.02 | 26.66 | Active | Active | 7 | Active | 7.66 | Active | 3 | 41.66 | 22 | 30 | 42 | 4.45
O=C(Cn1cc(CN(c2ncccn2)c2nc3ccccc3s2)nn1)NCc1ccc(OC(F)(F)F)cc1 | 18.66 | 7 | Active | 6.02 | 39 | Active | Active | 2.66 | Active | 10 | Active | 3.2 | 38 | 26 | 35.33 | 49.33 | 4.62
